The text below walks through data of patent US20250255868A1, “HETEROCYCLIC COMPOUND ACTING AS KRAS G12D INHIBITOR” (Hangzhou Innogate Pharma Co., Ltd., priority 2021, published 2025).

pIC50: −log10 of the molar value.

Holding throughout (assay type): cell-based
The subject of assay [1] is AGS (human gastric cancer cell line, KRAS G12D mutation). In words: 3D cell proliferation inhibition (CellTiter-Glo), AGS. The settings on record: 168 h, 3D culture, 100 nM compound, seven days, CTG. As for the experimental part: (§1) The Cell Titer-Glo (CTG) method was adopted. Compound was dissolved with DMSO to 10 mM, and then diluted by medium. The upper medium of cells was removed, washed once with DPBS, added 2 mL of trypsin, and placed at 37° C. for a while. After cells were detached from the petri dish, 5 mL fresh medium was added and the suspension cells were centrifuged at 1000 rpm for 5 minutes at room temperature. Resuspend the cells with 5 mL of fresh culture medium, and use Countess™ to count cells. 200 nL compounds were added to a ultra-low attachment 384-well plate, and 40 μL cells were added to each well. After seven days of culture at 37° C., 5% CO2, CTG was added and the signal was recorded using Envision. The Inhibition rate is calculated using the following formula: Inhibition %=(Ave_H-Sample)/(Ave_H-Ave_L)×100%. Ave_H represents the average reading value of DMSO well, Sample represents the average reading value of compound well, and Ave_L represents the average reading value of 10 μM positive control well. The log value of concentration was taken as the X-axis, and the percentage inhibition rate was taken as the Y-axis. The dose-effect curve was fitted with log(inhibitor) vs. response-Variable slope of the analysis software GraphPad Prism 5. The IC50 value or inhibitory rate of each compound on cell proliferation was obtained.

Assay [2] has as its system AsPC1 (human pancreatic cancer cell line, KRAS G12D mutation). Nature of the assay: 3D cell proliferation inhibition (CellTiter-Glo), AsPC1. The conditions noted are these: ASPC1, 168 h, 3D culture, seven days, CTG. On the procedure:
as §1, with “Compound activity was indicated by AGS (human gastric cancer cell line, KRAS G12D mutation), GP2D (human colon cancer cell line, KRAS G12D mutation), HPAC (human pancreatic cancer cell line, KRAS G12D mutation) and AsPCl (human pancreatic cancer cell line, KRAS G12D mutation) 3D cell proliferation inhibition. The Cell” for “The Cell”
In general terms: Cellular ATP, detected with luciferase, serves as a proxy for viable cell number.

Assay [3] deals with HPAC (human pancreatic cancer cell line, KRAS G12D mutation). Nature of the assay: 3D cell proliferation inhibition (CellTiter-Glo), HPAC. The conditions noted are these: 168 h, 3D culture, seven days, CTG. On the procedure: as §1, with “Compound activity was indicated by AGS (human gastric cancer cell line, KRAS G12D mutation), GP2D (human colon cancer cell line, KRAS G12D mutation), HPAC (human pancreatic cancer cell line, KRAS G12D mutation) and AsPCl (human pancreatic cancer cell line, KRAS G12D mutation) 3D cell proliferation inhibition. The Cell” for “The Cell”

Assay [4] concerns GP2D (human colon cancer cell line, KRAS G12D mutation). Nature of the assay: 3D cell proliferation inhibition (CellTiter-Glo), GP2D. The conditions noted are these: 168 h, 3D culture, seven days, CTG. As for the experimental part: as §1, with “Compound activity was indicated by AGS (human gastric cancer cell line, KRAS G12D mutation), GP2D (human colon cancer cell line, KRAS G12D mutation), HPAC (human pancreatic cancer cell line, KRAS G12D mutation) and AsPCl (human pancreatic cancer cell line, KRAS G12D mutation) 3D cell proliferation inhibition. The Cell” for “The Cell”, “control well. […]” for “control well. The log value of concentration was taken as the X-axis, and the percentage inhibition rate was taken as the Y-axis. The dose-effect curve was fitted with log(inhibitor) vs. response-Variable slope of the analysis software GraphPad Prism 5. The IC50 value or inhibitory rate of each compound on cell proliferation was obtained.”

In the case of `CCc1c(F)ccc2cccc(-c3ncc4c(N5CC6CCC(C5)N6)nc(OCC56CCCN5CC(=C(F)F)C6)nc4c3F)c12` (centres unmarked) [Compound 14], the inhibition at 0.1 µM in assay [1] is more than 50%.

In assay [2], `C#Cc1c(F)ccc2cc(O)cc(-c3ncc4c(N5CCNC6(CC6)C5)nc(OC[C@@]56CCCN5C[C@H](F)C6)nc4c3F)c12` [Compound 22] gave a pIC50 of more than 6.82.

`C#Cc1c(F)ccc2cc(O)cc(-c3ncc4c(N5C6CCC5CNC6)nc(OC[C@@]56CCCN5C[C@H](F)C6)nc4c3F)c12` [Compound 21] had a pIC50 in assay [2] of more than 7.00.

For `C#Cc1c(F)ccc2cc(O)cc(-c3ncc4c(N5CCNC6(CC6)C5)nc(OCC56CCCN5CC(=C(F)F)C6)nc4c3F)c12` (centres unmarked) [Compound 24], the pIC50 in assay [3] is more than 7.15.

Consider `C#Cc1c(F)ccc2cc(O)cc(-c3ncc4c(N5CC6CCC(C5)N6)nc(OCC56CCCN5CC(=C(F)F)C6)nc4c3F)c12` (centres unmarked) [Compound 20], for which the pIC50 in assay [3] was more than 8.30.

In turn, `Oc1cc(-c2ncc3c(N4CCNC5(CC5)C4)nc(OC[C@@]45CCCN4C[C@H](F)C5)nc3c2F)c2c(F)cccc2c1` [Compound 1] registered an inhibition at 0.1 µM in assay [1] of more than 50%.

In assay [1], `C#Cc1c(F)ccc2cccc(-c3ncc4c(N5CC6CCC(C5)N6)nc(OCC56CCCN5CC(=C(F)F)C6)nc4c3F)c12` (centres unmarked) [Compound 12] had an inhibition at 0.1 µM of more than 50%. The pIC50 in assay [3] is more than 7.15.

On to `C#Cc1c(F)ccc2cc(OC(C)=O)cc(-c3ncc4c(N5CC6CCC(C5)N6)nc(OCC56CCCN5CC(=C(F)F)C6)nc4c3F)c12` (centres unmarked) [Compound 28], for which, in assay [3], the pIC50 was more than 7.15.

`C#Cc1c(F)ccc2cc(O)cc(-c3ncc4c(N5C6CCC5CNC6)nc(OCC56CCCN5CC(=C(F)F)C6)nc4c3F)c12` (centres unmarked) [Compound 23]: the negative logarithm of the IC50 (pIC50) in assay [3] is more than 7.30.

For `Oc1cc(-c2ncc3c(N4CC5CCC(C4)N5)nc(OCC45CCCN4CC(=C(F)F)C5)nc3c2F)c2c(F)cccc2c1` (centres unmarked) [Compound 4], the inhibition at 0.1 µM in assay [1] was more than 50%. Moreover, the pIC50 is more than 9.30 in assay [4] and more than 7.82 in assay [3].

In assay [1], `C#Cc1cccc2cc(O)cc(-c3ncc4c(N5CC6CCC(C5)N6)nc(OCC56CCCN5CC(=C(F)F)C6)nc4c3F)c12` (centres unmarked) [Compound 10] registered an inhibition at 0.1 µM of more than 50%. For the same molecule, the negative logarithm of the IC50 (pIC50) is more than 9.30 in assay [4], more than 8.00 in assay [3] and more than 8.30 in assay [2].

The molecule `C#Cc1c(F)ccc2cc(O)cc(-c3c(Cl)cc4c(N5CC6CCC(C5)N6)nc(OCC56CCCN5CC(=C(F)F)C6)nc4c3F)c12` (centres unmarked) [Compound 30] had a pIC50 in assay [3] of more than 7.60.

Take `FC(F)=C1CN2CCCC2(COc2nc(N3CC4CCC(C3)N4)c3cnc(-c4cccc5cccc(F)c45)c(F)c3n2)C1` (centres unmarked) [Compound 13]: the inhibition at 0.1 µM in assay [1] was more than 50%.

Molecule `C#Cc1c(F)ccc2cc(OP(=O)(O)O)cc(-c3ncc4c(N5CC6CCC(C5)N6)nc(OCC56CCCN5CC(=C(F)F)C6)nc4c3F)c12` (centres unmarked) [Compound 29] had a pIC50 in assay [3] of more than 8.00.

The inhibition is the drop in the measured response relative to a control, in per cent. Higher therefore signals a response far below the control. The pIC50 is −log10 of the IC50, conventionally taken in molar units.
